In PubChem BioAssay (NCI) one finds TGI and GI50 data, which are given here for eight molecules.

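In this assay, cells in 96-well plates receive the compound at five concentrations for 48 hours. Endpoints are linearly interpolated between the surrounding concentrations. Here, GI50 denotes the concentration required for 50% inhibition of growth. TGI marks complete inhibition of growth.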

Among the test systems are NCI-H460 lung; SF-268 CNS; HL-60(TB) leukemia; NCI-H522 lung; KM12 colon; MDA-MB-231 breast; TK-10 renal; UACC-257 melanoma; HOP-62 NSCLC; OVCAR-3 ovarian.
What all share (assay): inhibition of tumour cell growth, NCI panel, 48 h

On to `COC(=O)C1C2CCCN2OC1(C)CO` (stereo not drawn), for which the TGI in the assay with NCI-H460 lung, with SF-268 CNS, in the assay with HL-60(TB) leukemia, with NCI-H522 lung, in the assay on KM12 colon and in the assay on MDA-MB-231 breast was above 100 µM throughout. Besides, the TGI in the assay on TK-10 renal, in the assay with UACC-257 melanoma, in the assay with HOP-62 NSCLC and in the assay on OVCAR-3 ovarian was above 100 µM in each case.

In the case of `CCN(CC)CC(O)C1CCC(c2ccccc2)CC1` (stereo not drawn), the TGI in the assay on NCI-H460 lung is 85.5 µM; with SF-268 CNS it was above 100 µM; in the assay on HL-60(TB) leukemia, 58 µM; in the assay on NCI-H522 lung, 43.1 µM; in the assay on KM12 colon it was 71.3 µM; in the assay with MDA-MB-231 breast it was 37.6 µM. The TGI was 31.2 µM with TK-10 renal, 50.5 µM with UACC-257 melanoma, above 100 µM with HOP-62 NSCLC and above 100 µM in the assay on OVCAR-3 ovarian.

Consider `Cc1ccc(S(=O)(=O)n2cc(-c3nnnn3-c3ccc(Cl)cc3)c(=O)c3ccccc32)cc1`, for which the GI50 is 81.9 µM with NCI-H460 lung; above 100 µM in the assay with SF-268 CNS; 12.9 µM in the assay with HL-60(TB) leukemia; 41.3 µM with NCI-H522 lung; above 100 µM with KM12 colon; above 100 µM with MDA-MB-231 breast. Also, the GI50 was above 100 µM in the assay on TK-10 renal, above 100 µM in the assay with UACC-257 melanoma, 73.6 µM with HOP-62 NSCLC and above 100 µM in the assay with OVCAR-3 ovarian. Also, the TGI is above 100 µM with NCI-H460 lung; above 100 µM with SF-268 CNS; 31 µM in the assay on HL-60(TB) leukemia; above 100 µM in the assay with NCI-H522 lung; above 100 µM in the assay with KM12 colon; above 100 µM in the assay on MDA-MB-231 breast. The TGI in the assay on TK-10 renal, with UACC-257 melanoma, in the assay with HOP-62 NSCLC and in the assay on OVCAR-3 ovarian was above 100 µM throughout.

For `O=c1cccc(C#CC#C/C=C/CO)o1`, the GI50 in the assay on NCI-H460 lung is 2.88 µM; in the assay with SF-268 CNS it was 2.44 µM; in the assay on HL-60(TB) leukemia it was 3.17 µM; in the assay with NCI-H522 lung, 1.45 µM; in the assay on KM12 colon it was 1.64 µM; with MDA-MB-231 breast, 1.87 µM. For the same molecule, the GI50 is 2.21 µM in the assay with TK-10 renal, 2.07 µM with UACC-257 melanoma, 2.08 µM in the assay with HOP-62 NSCLC and 2.33 µM with OVCAR-3 ovarian. Also, the TGI in the assay on SF-268 CNS was 17.1 µM; in the assay with HL-60(TB) leukemia, above 100 µM; in the assay on KM12 colon it was 4.34 µM; in the assay on MDA-MB-231 breast, 4.03 µM; in the assay on TK-10 renal it was 4.66 µM; with UACC-257 melanoma, 4.7 µM. Besides, the TGI in the assay on HOP-62 NSCLC was 4.14 µM; in the assay on OVCAR-3 ovarian, 6.12 µM.

On to `COc1ccc(-c2coc3cc(OC)cc(O)c3c2=O)cc1`, for which the TGI with NCI-H460 lung, in the assay on SF-268 CNS, with HL-60(TB) leukemia, with NCI-H522 lung, in the assay with KM12 colon and in the assay on MDA-MB-231 breast was above 100 µM each time. The TGI with TK-10 renal is 84.4 µM; with UACC-257 melanoma, above 100 µM; in the assay with HOP-62 NSCLC it was above 100 µM; in the assay on OVCAR-3 ovarian, above 100 µM.

For the molecule `COc1ccc(Cn2c(Br)c3c(c2-c2cc(OC)c(OC)c(OC)c2)CCc2sc(NC(C)=O)nc2-3)cc1`, the GI50 in the assay with NCI-H460 lung is 3.05 µM; in the assay on SF-268 CNS, 6.15 µM; in the assay on HL-60(TB) leukemia, 3.27 µM; in the assay with NCI-H522 lung, 2.17 µM; in the assay with KM12 colon, 4.03 µM; with MDA-MB-231 breast, 3.22 µM. Further, the GI50 in the assay with TK-10 renal is 6.17 µM; with UACC-257 melanoma, 98.5 µM; in the assay on HOP-62 NSCLC it was 5.52 µM; in the assay on OVCAR-3 ovarian it was 3.63 µM. Moreover, the TGI with NCI-H460 lung was above 100 µM; in the assay on SF-268 CNS, above 100 µM; with HL-60(TB) leukemia, 8.06 µM; in the assay with NCI-H522 lung it was 9.22 µM; in the assay with KM12 colon, above 100 µM; with MDA-MB-231 breast, 43.6 µM. Also, the TGI with TK-10 renal was 37.6 µM; with UACC-257 melanoma, above 100 µM; in the assay with HOP-62 NSCLC, above 100 µM; in the assay with OVCAR-3 ovarian, above 100 µM.

Turning to `CC([O-])C(=O)[O-].NCC1CCC1CN.[Pt+4]` (stereo not drawn), the GI50 in the assay on NCI-H460 lung, in the assay on SF-268 CNS, with HL-60(TB) leukemia, with NCI-H522 lung, in the assay on KM12 colon and in the assay on MDA-MB-231 breast was above 10 µM in each case. Also, the GI50 in the assay with TK-10 renal, in the assay on UACC-257 melanoma, with HOP-62 NSCLC and with OVCAR-3 ovarian was above 10 µM in each case. Besides, the TGI in the assay with NCI-H460 lung, in the assay with SF-268 CNS, in the assay with HL-60(TB) leukemia, in the assay with NCI-H522 lung, in the assay on KM12 colon and with MDA-MB-231 breast was above 10 µM each time. The TGI in the assay on TK-10 renal, with UACC-257 melanoma, in the assay on HOP-62 NSCLC and with OVCAR-3 ovarian was above 10 µM in each case.

Take `COc1cc2c3c(c4c5ccccc5[nH]c4c2c(OC)c1OC)C(=O)N(CCN1CCCCC1)C3=O`: the GI50 was 0.654 µM with NCI-H460 lung; 1.15 µM in the assay with SF-268 CNS; 8.15 µM with HL-60(TB) leukemia; 0.794 µM in the assay with NCI-H522 lung; 1.02 µM with KM12 colon; 1.47 µM in the assay on MDA-MB-231 breast. For the same molecule, the GI50 in the assay with TK-10 renal was 1.3 µM; with UACC-257 melanoma, 2.79 µM; with HOP-62 NSCLC, 0.721 µM; in the assay with OVCAR-3 ovarian, 1.31 µM. For the same molecule, the TGI with NCI-H460 lung is 2.1 µM; with SF-268 CNS it was 2.96 µM; with HL-60(TB) leukemia it was above 41 µM; in the assay on NCI-H522 lung, 2.76 µM; in the assay on KM12 colon it was 2.59 µM; in the assay on MDA-MB-231 breast, 3.08 µM. In addition, the TGI in the assay with TK-10 renal was 2.72 µM; in the assay with UACC-257 melanoma, 9.62 µM; with HOP-62 NSCLC, 2.79 µM; in the assay on OVCAR-3 ovarian, 2.77 µM.
